Literature values in article PMC3826081 (Journal of the American Chemical Society, 2013).

Molecular target: PG9
Conditions: read-out: Kd for binding of PG9; NMR studies; glycan-Asn alone; cited from earlier work

## CC(=O)N[C@@H]1[C@@H](O)[C@H](O[C@@H]2O[C@H](CO)[C@@H](O[C@@H]3O[C@H](CO[C@H]4O[C@H](CO[C@H]5O[C@H](CO)[C@@H](O)[C@H](O)[C@@H]5O)[C@@H](O)[C@H](O[C@H]5O[C@H](CO)[C@@H](O)[C@H](O)[C@@H]5O)[C@@H]4O)[C@@H](O)[C@H](O[C@H]4O[C@H](CO)[C@@H](O)[C@H](O)[C@@H]4O)[C@@H]3O)[C@H](O)[C@H]2NC(C)=O)[C@@H](CO)O[C@H]1NC(=O)C[C@H](N)C(=O)O [Man5GlcNAc2–Asn]
  Kd: 1000 to 2000 µM
